Here are results for four compounds from patent publication US11242353B2, “Heterocyclic LSF inhibitors and their uses” (TRUSTEES OF BOSTON UNIVERSITY, priority 2020, dated 2022).

The test system of the assay is Huh7 cells. The assay is described as follows: growth inhibition of Huh7 cells. It is filed as cell-based. The note with it: single trials per figure (FIGS. 1A-4). The procedure: FIGS. 1A-4 show results for growth inhibition of Huh7 cells upon contact with compounds (FQI-37Q), (FQI-34Q), (FQI-1Q), (JAK 196-22), and (JAK 196.23). Compounds (FQI-37Q) and (FQI-34Q) show high activities (GI50 about 0.5 μM and lower).

Where [1] appears, read: Homo sapiens, Huh-7, Huh7 cells, read-out: GI50 (growth inhibition of Huh7 cells).

Read-outs that look alike come from different tables or passages of the source.

Turning to `CCOc1ccccc1N1CC(=O)Nc2cc3c(cc21)OCO3` [FQI-1Q, 8-(2-ethoxyphenyl)-7,8-dihydro-[1,3]dioxolo[4,5-g]quinoxalin-6(5H)-one], under setting [1], the GI50 was 3600 nM.

On to `CCOc1cc(N(C)C)ccc1N1CC(=O)Nc2cc3c(cc21)OCO3` [FQI-34Q, 8-(4-(dimethylamino)-2-ethoxyphenyl)-7,8-dihydro-[1,3]dioxolo[4,5-g]quinoxalin-6(5H)-one], for which the GI50 (Homo sapiens, Huh-7, read-out: GI50 (growth inhibition of Huh7 cells), Huh7 cells) is not above 500 nM.

Take `CCOc1cc(N(C)C)ccc1N1CC(=O)Nc2cc3c(cc21)OCCO3` [FQI-37Q, 9-(4-(dimethylamino)-2-ethoxyphenyl)-2,3,8,9-tetrahydro-[1,4]dioxino[2,3-g]quinoxalin-7(6H)-one]: for the setting “read-out: GI50 (growth inhibition of Huh7 cells), Huh7 cells”, the 50% growth inhibitory concentration (GI50) was 501 nM.

`COc1cc([N+](=O)[O-])ccc1-n1c(=O)cnc2cc3c(cc21)OCO3` [JAK 196-22]: the GI50 under setting [1] was more than 10000 nM.

Usually GI50 stands for the concentration giving 50% growth inhibition.
